Source: patent publication EP1171141B1, “MEDICAMENT FOR INHIBITING THE NF-kB TRANSCRIPTION FACTOR” (Max Zeller Söhne AG, priority 1999, dated 2000)

Legend:
Type in all cases: cell-based
[1] = molecular target: T1, COX-2 (Homo sapiens, UniProt P35354); assay: cell-based
T1 construct: Dazu wurden Mono Mac 6 Zellen mit unterschiedlichen Konzentrationen der Testsubstanzen während 30 min inkubiert; endogenous in cells; host or cells: Mono Mac 6 cells, LPS-stimulated
T1 sequence (P35354 18-604): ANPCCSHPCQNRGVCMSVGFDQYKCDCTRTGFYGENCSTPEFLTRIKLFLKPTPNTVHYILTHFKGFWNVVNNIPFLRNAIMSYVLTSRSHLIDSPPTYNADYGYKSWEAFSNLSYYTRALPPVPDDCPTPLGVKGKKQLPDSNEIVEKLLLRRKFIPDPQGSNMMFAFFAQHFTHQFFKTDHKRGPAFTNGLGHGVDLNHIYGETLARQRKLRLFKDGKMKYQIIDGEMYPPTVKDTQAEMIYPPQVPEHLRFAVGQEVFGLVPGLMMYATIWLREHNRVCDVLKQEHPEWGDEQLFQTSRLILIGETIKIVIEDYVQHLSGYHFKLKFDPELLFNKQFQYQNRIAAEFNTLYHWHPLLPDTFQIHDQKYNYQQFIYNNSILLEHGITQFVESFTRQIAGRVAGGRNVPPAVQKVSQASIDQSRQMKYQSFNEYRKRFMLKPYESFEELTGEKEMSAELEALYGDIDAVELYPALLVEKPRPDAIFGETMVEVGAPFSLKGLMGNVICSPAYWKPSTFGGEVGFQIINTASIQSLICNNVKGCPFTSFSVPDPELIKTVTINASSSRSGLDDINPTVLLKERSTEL
Experimental: Zur Bestimmung der COX-2-Hemmwirkung wurde allgemein nach der Methode von Berg et al., J. Pharmacol. Toxicol.
Dazu wurden Mono Mac 6 Zellen mit unterschiedlichen Konzentrationen der Testsubstanzen während 30 min inkubiert. Anschliessend wurde Lipopolysaccharid (LPS, 100 ng/ml) zupipettiert und nochmals sechs Stunden inkubiert. Anschliessend wurde Arachidonsäure zugegeben (Endkonzentration 30 µM), während 15 Min. inkubiert und das gebildete Keto-PGF1α mittels ELISA (Enzyme Linked Immuno Sorbent Assay) bestimmt.
In einer Variante wurden Testsubstanz und LPS zeitgleich eingesetzt. Die Messung der COX1 Hemmung erfolgte in HEL-Zellen nach der Methode von Berg et al., J. Pharmacol. Toxicol. […] Dabei wurden HEL Zellen mit unterschiedlichen Konzentrationen der Testsubstanzen während 30 min inkubiert, anschliessend Arachidonsäure zugesetzt (Endkonzentration 30 µM), während 15 Min. inkubiert und das gebildete Tromboxan B2 mittels ELISA gemessen. […]

[2] = test system: NF-κB; assay: NF-κB inhibition of test compounds, NF-κB binding to DNA by EMSA (Jurkat T cells and cell extracts); details: Jurkat T cells
Description: Bestimmt wurde dabei die in-vivo und die in-vitro NF-κB Bindung an DNA durch Messung der elektrophoretischen Mobilitätsverschiebung.
Die in vivo Bindung wurde mit Jurkat T-Zellen durchgeführt. Die Zellen wurden während einer Stunde mit verschiedenen Konzentrationen der verschiedenen Extrakte inkubiert und anschliessend mit TNF-α während einer Stunde stimuliert. Total-Protein-Extrakte der Zellen wurden gewonnen und in einem Assay auf elektrophoretische Mobilitätsverschiebung (electrophoretic mobility shift assay, EMSA) auf NF-κB-bindende Aktivität geprüft.
Die in vitro Bindung wurde ebenfalls mit Jurkat T-Zellen geprüft. Zellextrakle von stimulierten wie unstimulierten Zellen wurden gewonnen. Gleiche Proteinmengen (10-20 µg) wurden 2 Stunden mit Konzentrationsreihen der zu testenden Verbindungen inkubiert und schliesslich auf elektrophoretische Mobilitätsverschiebung (EMSA) analysiert.

[3] = molecular target: T2, COX-1 (Homo sapiens, UniProt P23219); assay: COX-1 inhibition in HEL cells (Tromboxan B2 by ELISA)
T2 construct: Die Messung der COX1 Hemmung erfolgte in HEL-Zellen nach der Methode von Berg et al; endogenous in cells; host or cells: HEL cells
T2 sequence (P23219 24-599): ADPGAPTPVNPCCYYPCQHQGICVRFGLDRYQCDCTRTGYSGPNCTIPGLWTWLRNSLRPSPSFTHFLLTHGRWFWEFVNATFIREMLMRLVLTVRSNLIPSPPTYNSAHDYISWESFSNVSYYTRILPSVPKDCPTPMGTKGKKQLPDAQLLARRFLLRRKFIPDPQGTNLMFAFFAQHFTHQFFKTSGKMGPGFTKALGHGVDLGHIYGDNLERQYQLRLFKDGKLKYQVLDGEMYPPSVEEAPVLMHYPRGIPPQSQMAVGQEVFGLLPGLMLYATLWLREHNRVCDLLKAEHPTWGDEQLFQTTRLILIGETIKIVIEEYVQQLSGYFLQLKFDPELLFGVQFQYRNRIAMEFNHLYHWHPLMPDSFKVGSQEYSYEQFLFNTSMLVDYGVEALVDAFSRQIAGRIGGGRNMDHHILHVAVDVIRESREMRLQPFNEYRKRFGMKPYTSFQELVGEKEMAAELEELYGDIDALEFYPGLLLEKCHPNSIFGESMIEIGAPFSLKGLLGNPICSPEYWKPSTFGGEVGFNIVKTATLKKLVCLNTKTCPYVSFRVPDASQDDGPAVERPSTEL
Experimental: In einer Variante wurden Testsubstanz und LPS zeitgleich eingesetzt. Die Messung der COX1 Hemmung erfolgte in HEL-Zellen nach der Methode von Berg et al., J. Pharmacol. Toxicol. Methods 37, 179-186 (1997). Dabei wurden HEL Zellen mit unterschiedlichen Konzentrationen der Testsubstanzen während 30 min inkubiert, anschliessend Arachidonsäure zugesetzt (Endkonzentration 30 µM), während 15 Min. inkubiert und das gebildete Tromboxan B2 mittels ELISA gemessen.

Row | Structure (SMILES) | IC50 [1] [nM] | NF-κB: Grenzkonzentration, bei der eben noch ein Hemmeffekt im EMSA feststellbar ist [2] | IC50 [3] [µM] | präferentielle Hemmung der induzierbaren COX-2 ([1]; COX-2 versus COX-1, statement on Table 2)
1 | O=C1c2ccccc2-n2c1nc1ccc(Cl)cc1c2=O [Verbindung 5] | 2000 | 50 µM/Liter | 10 | –
2 | CN1CCN(c2ccc3c(=O)n4c(nc3c2)C(=O)c2cc(F)ccc2-4)CC1 [Verbindung 32] | 1000 | 10 µM/Liter | 1 | –
3 | O=C1c2ccccc2-n2c1nc1ccccc1c2=O [Verbindung 1, Indolo[2,1-b]chinazolin-6,12-dion] | – | – | 2 | –
4 | Cc1cc(C)c2nc3n(c(=O)c2c1)-c1ccc(F)cc1C3=O [Verbindung 24] | > 50000 | >100 µM/Liter | > 50 | –
5 | O=C1c2cc(Cl)ccc2-n2c1nc1ccccc1c2=O [Verbindung 10] | 500 | 5 µM/Liter | 1 | –
6 | CN(CC(=O)O)c1ccc2c(=O)n3c(nc2c1)C(=O)c1cc(Cl)ccc1-3 [Verbindung 99] | 500 | 1 µM/Liter | 5 | –
7 | CC1CN(c2cc3c(cc2F)C(=O)c2nc4ccccc4c(=O)n2-3)CCN1C(=O)OC(C)(C)C (centres unmarked) [Verbindung 42] | > 50000 | >100 µM/Liter | > 50 | –
8 | CCOC(=O)c1ccc2c(c1)C(=O)c1nc3ccccc3c(=O)n1-2 [Verbindung 37] | > 50000 | >100 µM/Liter | > 50 | –
9 | Nc1ccc2nc3n(c(=O)c2c1)-c1ccc(F)cc1C3=O [Verbindung 20] | 500 | 5 µM/Liter | 5 | –
10 | O=C1c2cc(Cl)ccc2-n2c1nc1cc(N3CCOCC3)ccc1c2=O [Verbindung 86] | 10 | 0,5 µM/Liter | 5 | besonders deutliche präferentielle Hemmung der induzierbaren COX-2
11 | CN(CCO)c1ccc2c(=O)n3c(nc2c1)C(=O)c1cc(OC(F)(F)F)ccc1-3 [Verbindung 110] | 500 | 5 µM/Liter | 2 | –
12 | CCCCCCCCS(=O)(=O)c1ccc2c(c1)C(=O)c1nc3c(OC)cccc3c(=O)n1-2 [Verbindung 69] | > 50000 | >100 µM/Liter | > 50 | –
